From patent US20050245563A1 (Millennium Pharmaceuticals, Inc., priority 2003, published 2005)

These compounds were tested against T1, human Chk1 (GST-Chk1) (Homo sapiens, UniProt O14757) (assay: Chk1 DELFIA kinase assay (2 nM GST-Chk1, 600 μM ATP)). Settings: Biotin-GLYRSPSMPEN-amide substrate.
T1 construct: made in house; host or cells: insect cells (baculovirus, Bac-to-Bac)
T1 sequence (O14757 1-476): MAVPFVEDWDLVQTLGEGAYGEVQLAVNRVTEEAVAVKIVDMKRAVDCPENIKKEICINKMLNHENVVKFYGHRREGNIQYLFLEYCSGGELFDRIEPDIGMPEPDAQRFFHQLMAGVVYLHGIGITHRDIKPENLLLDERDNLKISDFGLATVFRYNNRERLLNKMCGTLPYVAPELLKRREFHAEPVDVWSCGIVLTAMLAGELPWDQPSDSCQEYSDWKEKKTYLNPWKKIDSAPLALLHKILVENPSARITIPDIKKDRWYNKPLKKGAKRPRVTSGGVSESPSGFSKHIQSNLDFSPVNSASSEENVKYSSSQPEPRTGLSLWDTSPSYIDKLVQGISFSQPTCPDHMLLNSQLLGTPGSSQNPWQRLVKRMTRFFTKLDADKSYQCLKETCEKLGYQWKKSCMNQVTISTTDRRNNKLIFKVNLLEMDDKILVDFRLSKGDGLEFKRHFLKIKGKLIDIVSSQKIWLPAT
Assay type: biochemical
Description: Recombinant human Chk1 was expressed as a fusion protein with glutathione S-transferase at the amino-terminus (GST-Chk1) using standard baculovirus vectors and (Bac-to-Bac®) insect cell expression system purchased from GIBCO™ Invitrogen. Recombinant protein expressed in insect cells was purified using glutathione sepharose (Amersham Biotech) using standard procedures described by the manufacturer.
Chk1 DELFIA® Kinase Assay:
Assays (25 μL) utilized 2 nM GST-Chk1 containing 10 mM Tris, pH 7.5, 20% glycerol, 50 mM sodium chloride (NaCl), 0.01% Surfact-Amps® 20, 1 μM peptide stubstrate (Biotin-GLYRSPSMPEN-amide) (SEQ ID NO: 3), 01.% BSA, 2 mM DTT, 4% DMSO, 600 μM ATP, 10 MM MgCl2 and reacted for 50 minutes at room temperature. Reactions were terminated with 100 μL of Stop buffer containing 1% BSA, 10 mM Tris, pH 8.0, 150 mM NaCl, 100 mM EDTA. Stopped reactions (100 μL) were transferred to 96 well NeutrAvidin plates (Pierce) to capture the biotin-peptide substrate during a 30 minute room temperature incubation. Wells were washed and reacted with 100 μL PerkinElmer Wallac Assay Buffer containing 21.5 ng/ml anti-phospho-Ser216-Cdc25c rabbit polyclonal antibody from Cell Signaling Technology (Beverly, Mass.) and 292 ng/ml europium labeled anti-rabbit-IgG for 1 hour at room temperature. Wells were washed and europium released from the bound antibody by addition of Enhancement Solution (100 μL) (PerkinElmer Wallac) and detected using a Perkin Elmer Wallac Envison™ 2100 multilabel reader using standard manufacturer settings.

IC50, < 1000 nM:
Cc1[nH]nc2c1c(=O)n(CCCN)c1ccc(C#CCO)cc21 [Example 272, 5-(3-Amino-propyl)-8-(3-hydroxy-prop-1-ynyl)-3-methyl-2,5-dihydro-pyrazolo[4,3-c]quinolin-4-one]
Cc1[nH]nc2c1c(=O)n(CCCN)c1ccc(C#CCN)cc21 [Example 273, 5-(3-Amino-propyl)-8-(3-amino-prop-1-ynyl]-3-methyl 2,5-dihydro-pyrazolo[4,3-c]quinolin-4-one]
CNCC#Cc1ccc2c(c1)c1n[nH]c(C)c1c(=O)n2CCCN [Example 274, 5-(3-Amino-propyl)-3-methyl 8-(3-methylamino-prop-1-ynyl]-2,5-dihydro-pyrazolo[4,3-c]quinolin-4-one]
Cc1[nH]nc2c1c(=O)n(CCCN)c1ccc(C#CCN(C)Cc3ccccc3)cc21 [Example 275, 5-(3-Amino-propyl)-8-[3-(benzyl-methyl-amino)-prop-1-ynyl]-3-methyl-2,5-dihydro-pyrazolo[4,3-c]quinolin-4-one]
CC(=O)NCC#Cc1ccc2c(c1)c1n[nH]c(C)c1c(=O)n2CCCN [Example 276, N-{^3-[5-(3-Amino-propyl)-3-methyl-4-oxo4,5-dihydro-2H-pyrazolo[4,3-c]quinolin-8-yl]-prop-2-ynyl]-acetamide]
Cc1[nH]nc2c1c(=O)n(CCCN)c1ccc(C#Cc3cccnc3)cc21 [Example 277]
Cc1[nH]nc2c1c(=O)n(CCCN)c1ccc(C#Cc3ccccn3)cc21 [Example 278, 5-(3-Amino-propyl)-3-methyl-8-pyridin-2-ylethylynyl-2,5-dihydro-pyrazolo[4,3-c]quinolin-4-one]
Cc1[nH]nc2c1c(=O)n(CCCN)c1ccc(C#Cc3ccncc3)cc21 [Example 279, 5-(3-Amino-propyl)-3-methyl-8-pyridin-4-ylethylynyl-2,5-dihydro-pyrazolo[4,3-c]quinolin-4-one]
Cc1[nH]nc2c1c(=O)n(CCCN)c1ccc(C#CCOc3ccccc3)cc21 [Example 280, 5-(3-Amino-propyl)-3-methyl-8-(3-phenoxy-prop-1-ynyl)-2,5-dihydro-pyrazolo[4,3-c]quinolin-4-one]
COCC#Cc1ccc2c(c1)c1n[nH]c(C)c1c(=O)n2CCCN [Example 281, 5-(3-Amino-propyl)-8-(3-methoxy-prop-1-ynyl)-3-methyl-2,5-dihydro-pyrazolo[4,3-c]quinolin-4-one]
Cc1[nH]nc2c1c(=O)n(CCCN)c1ccc(C#CC(C)O)cc21 (stereo not drawn) [Example 282, 5-(3-Amino-propyl)-8-(3-hydroxy-but-1-ynyl)-3-methyl 2,5-dihydro-pyrazolo[4,3-c]quinolin-4-one]
CC#Cc1ccc2c(c1)c1n[nH]c(C)c1c(=O)n2CCCN [Example 283, 5-(3-Amino-propyl)-3-methyl 8-prop-1-ynyl-2,5-dihydro-pyrazolo[4,3-c]quinolin-4-one]
Cc1[nH]nc2c1c(=O)n(CCCN)c1ccc(C#CCN(C)C)cc21 [Example 284, 5-(3-Amino-propyl)-8-(3-dimethylamino-prop-1-ynyl]-3-methyl 2,5-dihydro-pyrazolo[4,3-c]quinolin-4-one]
Cc1[nH]nc2c1c(=O)n(CCCN)c1ccc(C#CCN3CCCC3)cc21 [Example 285, 5-(3-Amino-propyl)-3-methyl-8-(3-pyrrolidin-1-yl-prop-1-ynyl]-2,5-dihydro-pyrazolo[4,3-c]quinolin4-one]
Cc1[nH]nc2c1c(=O)n(CCCN)c1ccc(C#CCN3CCCCC3)cc21 [Example 286, 5-(3-Amino-propyl)-3-methyl-8-(3-piperidin-1-yl-prop-1-ynyl]-2,5-dihydro-pyrazolo[4,3-c]quinolin-4-one]
CC(=O)N1CCN(CC#Cc2ccc3c(c2)c2n[nH]c(C)c2c(=O)n3CCCN)CC1 [Example 287, 8-[3-(4-Acetyl-piperazin-1-yl)-prop-1-ynyl]-5-(3-amino-propyl)-3-methyl-2,5-dihydro-pyrazolo[4,3-c]quinolin-4-one]
Cc1[nH]nc2c1c(=O)n(CCCN)c1ccc(C#CCN3CCN(C)CC3)cc21 [Example 288, 5-(3-Amino-propyl)-3-methyl-8-[3-(4-methyl-piperazin-1-yl)-prop-1-ynyl]-2,5-dihydro-pyrazolo[4,3-c]quinolin-4-one]
Cc1[nH]nc2c1c(=O)n(CCCN)c1ccc(C#CCN3CCOCC3)cc21 [Example 289, 5-(3-Amino-propyl)-3-methyl-8-(3-morpholin-4-yl-prop-1-ynyl]-2,5-dihydro-pyrazolo[4,3-c]quinolin-4-one]
Cc1[nH]nc2c1c(=O)n(CCCN)c1ccc(C#CCn3ccnc3)cc21 [Example 290, 5-(3-Amino-propyl)-8-(3-imidazol-1-yl-prop-1-ynyl]-3-methyl-2,5-dihydro-pyrazolo[4,3-c]quinolin-4-one]
C#Cc1ccc2c(c1)c1n[nH]c(C)c1c(=O)n2CCCN [Example 291, 5-(3-Amino-propyl)-8-ethynyl-3-methyl-2,5-dihydro-pyrazolo[4,3-c]quinolin-4-one]
C#Cc1ccc2c(c1)c1n[nH]c(CCOC)c1c(=O)n2CCCN [Example 292, 5-(3-Amino-propyl)-8-ethynyl-3-(2-methoxy-ethyl)-2,5-dihydro-pyrazolo[4,3-c]quinolin-4-one]
C#Cc1ccc2c(c1)c1n[nH]c(C)c1c(=O)n2CCCNC [Example 293, 8-Ethynyl-3-methyl-5-(3-methylamino-propyl)-2,5-dihydro-pyrazolo[4,3-c]quinolin-4-one]
CCc1ccc2c(c1)c1n[nH]c(C)c1c(=O)n2CCCN [Example 294, 5-(3-Amino-propyl)-8-ethyl-3-methyl-2,5-dihydro-pyrazolo[4,3-c]quinolin4-one]
COCCCc1ccc2c(c1)c1n[nH]c(C)c1c(=O)n2CCCN [Example 295, 5-(3-amino-propyl)-8-(3-methoxypropyl)-3-methyl-2,5-dihydro-pyrazolo[4,3-c]quinolin-4-one]
Cc1[nH]nc2c1c(=O)n(CCCN)c1ccc(CCCN(C)C)cc21 [Example 296, 5-(3-Amino-propyl)-8-(3-dimethylamino-propyl)-3-methyl-2,5-dihydro-pyrazolo[4,3-c]quinolin-4-one]
Cc1[nH]nc2c1c(=O)n(CCCN)c1ccc(CCCN3CCCC3)cc21 [Example 297, 5-(3-Amino-propyl)-3-methyl-8-(3-pyrrolidin-1-yl-propyl)-2,5-dihydro-pyrazolo[4,3-c]quinolin-4-one]
CC(=O)NCCCc1ccc2c(c1)c1n[nH]c(C)c1c(=O)n2CCCN [Example 298, N-{3-[5-(3-Amino-propyl)-3-methyl-4-oxo-4,5-dihydro-2H-pyrazolo[4,3-c]quinolin-8-yl]-propyl}-acetamide]
Cc1[nH]nc2c1c(=O)n(CCCN)c1ccc(CCc3ccccn3)cc21 [Example 299, 5-(3-Amino-propyl)-3-methyl-8-(2-pyridin-2-yl-thyl)-2,5-dihydro-pyrazolo[4,3-c]quinolin-4-one]
CCc1ccc2c(c1)c1n[nH]c(C)c1c(=O)n2CCCNC [Example 300, 8-Ethyl-3-methyl-5-(3-methylamino-propyl)-2,5-dihydro-pyrazolo[4,3-c]quinolin-4-one]
Cc1[nH]nc2c1c(=O)n(CCCN)c1ccc(CCCO)cc21 [Example 301, 5-(3-Amino-propyl)-8-(3-hydroxy-propyl)-3-methyl 2,5-dihydro-pyrazolo[4,3-c]quinolin-4-one]
CCCc1ccc2c(c1)c1n[nH]c(C)c1c(=O)n2CCCN [Example 302, 5-(3-Amino-propyl)-3-methyl-8-propyl-2,5-dihydro-pyrazolo[4,3-c]quinolin4-one]
C#Cc1ccc2c(c1)c1n[nH]c(C)c1c(=O)n2C[C@H]1CCCNC1 [Example 303, 8-Ethynyl-3-methyl-5-piperidin-3-ylmethyl-2,5-dihydro-pyrazolo[4,3-c]quinolin-4-one]
C#Cc1ccc2c(c1)c1n[nH]c(CC)c1c(=O)n2CCCNC [Example 304, 8-Ethynyl-3-ethyl-5-(3-methylamino-propyl)-2,5-dihydro-pyrazolo[4,3-c]quinolin-4-one]
